Experimental data from PMC7182988 (Saudi Journal of Biological Sciences, 2020).
Entries after “also recorded” stand apart in the source; their conditions may differ. Like-named read-outs stand apart in the source and are kept apart here.

Experiments:
[1] = system: LPS-induced IL-6 in WI-38 fibroblast cells; experiment: ELISA assay for IL-6 release in LPS-stimulated cells; assay type: cell-based; conditions: for IL-6 (pg/ml)% (percentage of inhibition of IL-6): WI-38 cells, test compounds 10 µM, LPS 0.5 µg/mL, LPS alone = 100; for inhibition of IL-6 release (in words): LPS-stimulated WI-38 fibroblast cells
[2] = system: LPS-induced TNF-α in WI-38 fibroblast cells; experiment: ELISA assay for TNF-α release in LPS-stimulated cells; assay type: cell-based; conditions: for TNF-α (pg/ml)% (percentage of inhibition of TNF-α): WI-38 cells, test compounds 10 µM, LPS 0.5 µg/mL, LPS alone = 100; for inhibition of TNF-α release (in words): LPS-stimulated WI-38 fibroblast cells
human recombinant COX-1 = human recombinant COX-1 (Homo sapiens, UniProt P23219); experiment: COX-1; assay type: biochemical; conditions: for COX-1% (percentage of inhibition of COX-1): at 40 μg/mL; for Selectivity IC50 COX-1/IC50 COX-2: defined as IC50 COX-1/IC50 COX-2; for inhibition at 40 µg/mL: read-out: COX-1% (percentage of inhibition of COX-1)
Sequence of human recombinant COX-1 (P23219 24-599): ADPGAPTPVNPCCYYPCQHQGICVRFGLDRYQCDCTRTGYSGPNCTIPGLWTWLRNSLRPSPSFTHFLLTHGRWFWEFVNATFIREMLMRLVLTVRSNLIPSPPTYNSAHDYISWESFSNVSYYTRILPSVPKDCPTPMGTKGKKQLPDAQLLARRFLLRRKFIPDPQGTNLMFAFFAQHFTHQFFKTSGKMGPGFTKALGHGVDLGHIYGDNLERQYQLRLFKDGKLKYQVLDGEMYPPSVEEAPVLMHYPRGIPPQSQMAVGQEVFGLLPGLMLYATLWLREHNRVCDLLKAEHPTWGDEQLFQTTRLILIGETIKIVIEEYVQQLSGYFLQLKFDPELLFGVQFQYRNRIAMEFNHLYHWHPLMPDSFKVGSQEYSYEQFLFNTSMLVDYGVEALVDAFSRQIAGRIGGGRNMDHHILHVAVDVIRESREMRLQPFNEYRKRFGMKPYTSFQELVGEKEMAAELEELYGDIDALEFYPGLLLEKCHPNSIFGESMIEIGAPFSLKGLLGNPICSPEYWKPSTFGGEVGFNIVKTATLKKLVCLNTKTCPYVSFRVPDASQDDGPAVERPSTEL

human recombinant COX-2 = molecular target: T1, human recombinant COX-2 (Homo sapiens, UniProt P35354); experiment: COX-2; assay type: biochemical; conditions: for COX-2% (percentage of inhibition of COX-2): at 40 μg/mL; for inhibition at 40 µg/mL: read-out: COX-2% (percentage of inhibition of COX-2)
T1 sequence (P35354 18-604): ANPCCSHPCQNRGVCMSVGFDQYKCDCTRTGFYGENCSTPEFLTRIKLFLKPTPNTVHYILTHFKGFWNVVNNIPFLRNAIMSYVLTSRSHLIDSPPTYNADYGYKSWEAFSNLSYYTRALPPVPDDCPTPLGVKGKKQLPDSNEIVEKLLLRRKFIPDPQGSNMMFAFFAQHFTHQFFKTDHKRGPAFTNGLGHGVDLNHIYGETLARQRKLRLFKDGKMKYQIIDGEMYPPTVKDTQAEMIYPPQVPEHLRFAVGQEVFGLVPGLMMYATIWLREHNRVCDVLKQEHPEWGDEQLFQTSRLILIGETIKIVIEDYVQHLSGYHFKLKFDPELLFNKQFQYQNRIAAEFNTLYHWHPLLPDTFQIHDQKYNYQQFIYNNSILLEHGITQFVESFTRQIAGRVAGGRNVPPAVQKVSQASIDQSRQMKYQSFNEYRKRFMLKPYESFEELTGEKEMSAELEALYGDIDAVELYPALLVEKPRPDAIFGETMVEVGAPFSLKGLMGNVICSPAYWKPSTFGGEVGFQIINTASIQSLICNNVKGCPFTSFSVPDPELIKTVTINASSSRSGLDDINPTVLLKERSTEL

[3] = read-out: COX-1 IC50 (μM ± SD), mean ± SD of triplicate experiments
[4] = read-out: COX-2 IC50 (μM ± SD), mean ± SD of triplicate experiments

CC(=O)O[C@@H]1CC[C@@]2(C)[C@@H](CC[C@]3(C)[C@@H]2C(=O)C=C2[C@@H]4[C@@H](C)[C@H](C)CC[C@]4(C)CC[C@]23C)[C@@]1(C)C(=O)O [Acetyl-keto boswellic acid, reference compound]
IL-6 (pg/ml)% (percentage of inhibition of IL-6) [1]: 7.31%
TNF-α (pg/ml)% (percentage of inhibition of TNF-α) [2]: 18.76%
COX-1% (percentage of inhibition of COX-1) (human recombinant COX-1): 71.42%
Selectivity IC50 COX-1/IC50 COX-2 (human recombinant COX-1): 10%
IC50 (human recombinant COX-1; [3]): 7.84 ± 0.13 µM
COX-2% (percentage of inhibition of COX-2) (human recombinant COX-2): 19.87%
IC50 (human recombinant COX-2; [4]): 82.52 ± 0.62 µM

CC(=O)O[C@@H]1CC[C@@]2(C)[C@@H](CC[C@]3(C)[C@@H]2CC=C2[C@@H]4CC(C)(C)CC[C@]4(C)CC[C@]23C)[C@@]1(C)C(=O)O [Acetyl-α-boswellic acid, reference compound]
IL-6 (pg/ml)% (percentage of inhibition of IL-6) [1]: 15.73%
TNF-α (pg/ml)% (percentage of inhibition of TNF-α) [2]: 14.87%
COX-1% (percentage of inhibition of COX-1) (human recombinant COX-1): 69.81%
Selectivity IC50 COX-1/IC50 COX-2 (human recombinant COX-1): 10%
IC50 (human recombinant COX-1; [3]): 10.1 ± 0.17 µM
COX-2% (percentage of inhibition of COX-2) (human recombinant COX-2): 7.98%
IC50 (human recombinant COX-2; [4]): > 100 µM

CC(=O)O[C@@H]1CC[C@@]2(C)[C@@H](CC[C@]3(C)[C@@H]2CC=C2[C@@H]4[C@@H](C)[C@H](C)CC[C@]4(C)CC[C@]23C)[C@@]1(C)C(=O)O [Acetyl-β-boswellic acid, reference compound]
IL-6 (pg/ml)% (percentage of inhibition of IL-6) [1]: 11.42%
TNF-α (pg/ml)% (percentage of inhibition of TNF-α) [2]: 19.87%
COX-1% (percentage of inhibition of COX-1) (human recombinant COX-1): 75.73%
Selectivity IC50 COX-1/IC50 COX-2 (human recombinant COX-1): 11%
IC50 (human recombinant COX-1; [3]): 8.16 ± 0.1 µM
COX-2% (percentage of inhibition of COX-2) (human recombinant COX-2): 14.87%
IC50 (human recombinant COX-2; [4]): 72.52 ± 0.51 µM

Cc1ccc(-c2cc(C(F)(F)F)nn2-c2ccc(S(N)(=O)=O)cc2)cc1 [Celecoxib, reference compound]
IL-6 (pg/ml)% (percentage of inhibition of IL-6) ([1]; 10 µM): 24.77%

O=C(c1ccccc1)C1C(c2cc3ccccc3o2)C2CSCN2[C@@]12C(=O)Nc1ccc(Cl)cc12 (stereo partly drawn) [Compound 5a, (3S)-7'-(Benzofuran-2-yl)-6'-benzoyl-5-chloro-1',6',7',7a'-tetrahydro-3'H-spiro[indoline-3,5'-pyrrolo[1,2-c]thiazol]-2-one]
IC50 (human recombinant COX-1): 20.4 ± 0.55 µM
Selectivity IC50 COX-1/IC50 COX-2 (human recombinant COX-1): 23%
inhibition at 40 µg/mL (human recombinant COX-1): 57.4%
IC50 (human recombinant COX-2): 88.1 ± 1.78 µM
inhibition at 40 µg/mL (human recombinant COX-2): 11.2%

O=C(c1ccc(F)cc1)C1C(c2cc3ccccc3o2)C2CSCN2[C@@]12C(=O)Nc1ccc(Cl)cc12 (stereo partly drawn) [Compound 5c, (3S)-7'-(Benzofuran-2-yl)-5-chloro-6'-(4-fluorobenzoyl)-1',6',7',7a'-tetrahydro-3'H-spiro[indoline-3,5'-pyrrolo[1,2-c]thiazol]-2-one]
IC50 (human recombinant COX-1): 37 ± 1.54 µM
Selectivity IC50 COX-1/IC50 COX-2 (human recombinant COX-1): 49%
inhibition at 40 µg/mL (human recombinant COX-1): 40.8%
IC50 (human recombinant COX-2): 76.2 ± 1.46 µM
inhibition at 40 µg/mL (human recombinant COX-2): 8.33%

O=C(c1ccc(F)cc1)C1C(c2cc3ccccc3o2)C2C3CCCCC3CN2[C@@]12C(=O)Nc1ccc(Cl)cc12 (stereo partly drawn) [Compound 5d, (3S)-1'-(benzofuran-2-yl)-5-chloro-2'-(4-fluorobenzoyl)-1',2',5',5a',6',7',8',9',9a',9b'-decahydrospiro-[indoline-3,3'-pyrrolo[2,1-a]isoindol]-2-one]
inhibition of IL-6 release (in words) [1]: markedly inhibited; also recorded: most effective; also recorded: high potency
inhibition of TNF-α release (in words) [2]: markedly inhibited; also recorded: most effective; also recorded: high potency
inhibition at 40 µg/mL (human recombinant COX-1): 19.8%
inhibition at 40 µg/mL (human recombinant COX-2): 7.77%

O=C(c1ccc(F)cc1)C1C(c2cc3ccccc3o2)C2C3CCCCC3CN2[C@@]12C(=O)Nc1ccc(Br)cc12 (stereo partly drawn) [Compound 5e, (3S)-1'-(Benzofuran-2-yl)-5-bromo-2'-(4-fluorobenzoyl)-1',2',5',5a',6',7',8',9',9a',9b'-decahydrospiro-[indoline-3,3'-pyrrolo[2,1-a]isoindol]-2-one]
inhibition of IL-6 release (in words) [1]: markedly inhibited; also recorded: most effective; also recorded: high potency
inhibition of TNF-α release (in words) [2]: markedly inhibited; also recorded: most effective; also recorded: high potency
inhibition at 40 µg/mL (human recombinant COX-1): 9.43%
inhibition at 40 µg/mL (human recombinant COX-2): 1.8%

O=C(c1ccc(Br)cc1)C1C(c2cc3ccccc3o2)C2C3CCCCC3CN2[C@@]12C(=O)Nc1ccc(Cl)cc12 (stereo partly drawn) [Compound 5f, (3S)-1'-(Benzofuran-2-yl)-2'-(4-bromobenzoyl)-5-chloro-1',2',5',5a',6',7',8',9',9a',9b'-decahydrospiro-[indoline-3,3'-pyrrolo[2,1-a]isoindol]-2-one]
inhibition of IL-6 release (in words) [1]: markedly inhibited; also recorded: most effective; also recorded: high potency
inhibition of TNF-α release (in words) [2]: markedly inhibited; also recorded: most effective; also recorded: high potency
inhibition at 40 µg/mL (human recombinant COX-1): 32.1%
inhibition at 40 µg/mL (human recombinant COX-2): 5.92%

O=C(c1ccc(Br)cc1)C1C(c2cc3ccccc3o2)C2C3CCCCC3CN2[C@@]12C(=O)Nc1ccc(Br)cc12 (stereo partly drawn) [Compound 5g, (3S)-1'-(Benzofuran-2-yl)-5-bromo-2'-(4-bromobenzoyl)-1',2',5',5a',6',7',8',9',9a',9b'-decahydrospiro-[indoline-3,3'-pyrrolo[2,1-a]isoindol]-2-one]
inhibition of IL-6 release (in words) [1]: markedly inhibited; also recorded: most effective; also recorded: high potency
inhibition of TNF-α release (in words) [2]: markedly inhibited; also recorded: most effective; also recorded: high potency
inhibition at 40 µg/mL (human recombinant COX-1): 19.8%
inhibition at 40 µg/mL (human recombinant COX-2): 2.76%

O=C(c1ccc(Br)cc1)C1C(c2cc3ccccc3o2)C2CSCN2[C@@]12C(=O)Nc1ccc(Br)cc12 (stereo partly drawn) [Compound 5h, (3S)-7'-(Benzofuran-2-yl)-5-bromo-6'-(4-bromobenzoyl)-1',6',7',7a'-tetrahydro-3'H-spiro[indoline-3,5'-pyrrolo[1,2-c]thiazol]-2-one]
IC50 (human recombinant COX-1): 35.7 ± 0.51 µM
Selectivity IC50 COX-1/IC50 COX-2 (human recombinant COX-1): 42%
inhibition at 40 µg/mL (human recombinant COX-1): 41.7%
IC50 (human recombinant COX-2): 84.7 ± 1.16 µM
inhibition at 40 µg/mL (human recombinant COX-2): 9.8%

O=C(c1ccc(Br)cc1)C1C(c2cc3ccccc3o2)C2CSCN2[C@@]12C(=O)Nc1ccc(Cl)cc12 (stereo partly drawn) [Compound 5i, (3S)-7'-(Benzofuran-2-yl)-6'-(4-bromobenzoyl)-5-chloro-1',6',7',7a'-tetrahydro-3'H-spiro[indoline-3,5'-pyrrolo[1,2-c]thiazol]-2-one]
IC50 (human recombinant COX-1): 29.55 ± 0.19 µM
Selectivity IC50 COX-1/IC50 COX-2 (human recombinant COX-1): 41%
inhibition at 40 µg/mL (human recombinant COX-1): 44.5%
IC50 (human recombinant COX-2): 71.2 ± 1.29 µM
inhibition at 40 µg/mL (human recombinant COX-2): 17.9%

O=C(c1ccc(C(F)(F)F)cc1)C1C(c2cc3ccccc3o2)C2CSCN2[C@@]12C(=O)Nc1ccc(Cl)cc12 (stereo partly drawn) [Compound 5l, (3S)-7'-(Benzofuran-2-yl)-5-chloro-6'-(4-(trifluoromethyl)benzoyl)-1',6',7',7a'-tetrahydro-3'H-spiro-[indoline-3,5'-pyrrolo[1,2-c]thiazol]-2-one]
IC50 (human recombinant COX-1): 31.25 ± 0.24 µM
inhibition at 40 µg/mL (human recombinant COX-1): 47.7%
IC50 (human recombinant COX-2): 58.8 ± 1.58 µM
inhibition at 40 µg/mL (human recombinant COX-2): 19.8%

O=C(c1ccc(Cl)cc1)C1C(c2cc3ccccc3o2)C2CSCN2[C@@]12C(=O)Nc1ccc(Cl)cc12 (stereo partly drawn) [Compound 5p, (3S)-7'-(Benzofuran-2-yl)-5-chloro-6'-(4-chlorobenzoyl)-1',6',7',7a'-tetrahydro-3'H-spiro[indoline-3,5'-pyrrolo[1,2-c]thiazol]-2-one]
IC50 (human recombinant COX-1): 38.2 ± 0.96 µM
Selectivity IC50 COX-1/IC50 COX-2 (human recombinant COX-1): 45%
inhibition at 40 µg/mL (human recombinant COX-1): 52.8%
IC50 (human recombinant COX-2): 85.7 ± 1.51 µM
inhibition at 40 µg/mL (human recombinant COX-2): 9.98%

COc1ccc2c(c1)c(CC(=O)O)c(C)n2C(=O)c1ccc(Cl)cc1 [Indomethacin, reference compound]
inhibition at 40 µg/mL (human recombinant COX-1): 87.3%

C[C@H]1[C@H](C)CC[C@]2(C)CC[C@]3(C)C(=CC[C@@H]4[C@@]5(C)CC[C@@H](O)[C@](C)(C(=O)O)[C@@H]5CC[C@]43C)[C@H]12 [β-Boswellic acid, reference compound]
IC50 (human recombinant COX-1): 18.1 ± 0.42 µM
Selectivity IC50 COX-1/IC50 COX-2 (human recombinant COX-1): 18%
inhibition at 40 µg/mL (human recombinant COX-1): 64.8%
IC50 (human recombinant COX-2): > 100 µM
inhibition at 40 µg/mL (human recombinant COX-2): 7.66%
